Results from patent US20110281798A1, “Methods for Lowering Plasma Glucagon with Exendins and Exendin Agonist Analogs” (AMYLIN PHARMACEUTICALS, INC., priority 1999, published 2011).

What was measured:
Sprague-Dawley rats = test: Insulinotropic action during intravenous glucose challenge in rats; type: in vivo, rat; conditions: 30 pmol/kg/min i.v.
diabetic db/db mice = test: Plasma glucose lowering in diabetic db/db mice, dose response; type: in vivo, mouse

Substance | Increase of 60-min insulin AUC versus saline (Sprague-Dawley rats; n.s. versus saline) [%] | Plasma glucose after glucose injection (Sprague-Dawley rats; saline 21.7) [mM] | 60-min glucose AUC (Sprague-Dawley rats; saline 987±39) [mM·min] | Glucose-lowering ED50 (diabetic db/db mice; diabetic db/db mice) [µg] | glucose lowering activity compared with exendin 4 (diabetic db/db mice; model not stated at b253)
GLP-1 [7-36]NH2 | 20 | 23.7 | 1096 ± 68 | 20.6 | –
Leu^14, Phe^25 1-28 exendin-4 (HGEGTFTSDLSKQLEEEAVRLAIEFLKN) [AC3177, a shortened analog of exendin 4] | – | – | – | – | nearly equipotent activity to exendin 4
